Source: a melting point compilation (Tetko et al.; mined from patent text by program, amines drawn as free bases though some values may be those of a salt)

SMILES	melting point [°C]
CC(C)COc1ccc(C(=O)N/C(=C\c2ccc(C(F)(F)F)cc2)C(=O)NCCO)cc1	207 to 210
CCOC(=O)C1(C(=O)OCC)CCC2(c3cc(OC)c(OC)cc3CCN2C(C)=O)C(C2c3cc(OC)c(OC)cc3CCN2CC)C1 (stereo not given)	142 to 144
COc1ccc2c(c1)C(=NO)c1c-2c(O)nc2ccccc12	320 to 321
CCOC(=O)c1cn(C)cc(-c2cccc(C(F)(F)F)c2)c1=O	151 to 152
Cc1nc(N2CCN(Cc3ccc4nonc4c3)C2=O)sc1C(=O)NCc1cccnc1	110 to 112
N#CNC(=NCCCOc1ccccc1)Nc1cncc(Br)c1	129 to 130
C(CSc1nnc(SCCCN2CCOCC2)s1)CN1CCOCC1	65.5 to 66
Cc1cccc(C)c1N1C(=O)CN(C(C)C)C1=S	135 to 137
CCCc1c(C#N)ccc(NC(=NC#N)Nc2cccc(Cl)c2Cl)c1O	143 to 147
CC(O)(C(=O)NCCC(F)(F)F)C(=O)NC1C(=O)N(CCO)c2ccccc2-c2ccccc21 (stereo not given)	59 to 62
CS(=O)(=O)c1ccc(C(=O)N2CCNC2=Nc2c(Cl)cccc2Cl)cc1	240 to 244
COc1ccc(-c2ccc3ccc(NC(=O)c4ccccc4)nc3n2)cc1	185 to 187
Cc1nccn1-c1nn(Nc2cnccn2)nc1-c1cccc(C#N)c1	276
CC(C)(C)CNc1cc(F)cc(C(=O)Nc2ccc(OCCN3CCOCC3)c3ccccc23)c1	85 to 87
CCOc1ccc(C[C@@H](NC(=O)[C@H]2CC[C@H](C(C)C)CC2)C(=O)O)cc1	149 to 151
CC(=O)N(C)c1ccccc1CS(=O)c1nccn1-c1ccccn1 (stereo not given)	188 to 189
Fc1ccc(-c2cncc(CN3CC=C(c4ccccc4)CC3)c2)cc1	128 to 129
CCCCNC(=O)NS(=O)(=O)c1ccc(CCNC(=O)N2CC(C)=CC2=O)cc1	189 to 191
O=[N+]([O-])c1ccc(S(=O)(=O)NCC2CCN(C[C@H]3COc4ccc(Cl)cc4O3)CC2)cc1	147 to 148
CN1CCN(c2ccc(-c3cnc4c(c3)N(Cc3cc(F)ccc3F)CCN4)cn2)CC1	192 to 193
Fc1ccc2c(NCc3ccccc3)nc(-c3cccnc3)nc2c1	199 to 203
CCOCC(=O)Nc1ccc(C2=NNC(=O)CC2C)cc1 (stereo not given)	195 to 197
Clc1nccc(N[C@H]2CC[C@@H](c3ccccc3)CC2)c1Br	105
CNC(=O)c1ccc(N2CCN(Cc3cc(C)c4c(c3)NC(=O)C(C)O4)CC2)c(Cl)c1 (stereo not given)	232

SMILES	melting point [°C]
COc1cc(C#N)cc(-c2ccc3c(c2)C(C)(C)OC(=S)N3)c1	201 to 202
Cn1c(=O)ccc2ccc(N)cc21	268 to 269
COC(=O)C(C)c1ccc2c(c1)CC(=O)c1ccccc1S2 (stereo not given)	81 to 82
CCN1CCC(NC(=O)Nc2ccccc2CCc2cc(C(C)(C)C)c(O)c(C(C)(C)C)c2)CC1	182 to 184
COc1ccc(COCCC(C(=O)O)c2ccccc2)cc1 (stereo not given)	114 to 115
CS(=O)(=O)c1ccc(-c2ccccc2Br)cc1	168 to 170
CCCCCCS(=O)(=O)c1nn2c(=O)c([N+](=O)[O-])c(OC)nc2s1	150 to 152
CCN1CC(=O)N(C)c2cc(Nc3ncc(Cl)c(Nc4ccc(OC)cc4-n4cccn4)n3)c(OC)cc2C1	105 to 107
CN1CCc2c(c3ccccc3n2CCc2n[nH]c(=S)n2C)C1	216 to 219
COC(=O)c1cccc2c1cc1n2CCCC1	102 to 103
CC12CCC(C(=Cc3ccc(C=O)cc3)C1=O)C2(C)C (stereo not given)	116
CN1CCN(c2cccc3c2C[C@H](NC(=O)c2ccc(C(=O)N4CCOCC4)cc2)CC3)CC1	124 to 127
COc1ccccc1N1CCN(C2CCN(c3csc4ccccc34)CC2)CC1	156 to 158
CON(C)C(=O)Cc1ccc([N+](=O)[O-])cc1	75 to 75.5
CCOC(=O)c1cnc2ccn(-c3ccncc3)n2c1=O	103 to 104
Cn1ccc2cccc(C3=C(c4c[nH]c5c(CCCO)cccc45)C(=O)NC3=O)c21	183 to 185
CCCCc1nc2c(N)nc3ccccc3c2n1CCCNC(=O)c1cc2ccccc2cn1	204 to 205
C[C@@H]([C@H](O)c1ccc(O)cc1)N1CCC(O)(Cc2ccccc2)CC1 (relative stereo)	173 to 174
C=CC1CC2C3CCC4=CC(=O)CCC4=C3C(c3ccc(-c4ccc(OC)nc4)cc3)CC2(C)C1C(=O)C1CC1 (stereo not given)	197
O=C(O)/C=C/n1cnc2ccccc2c1=O	250 to 254
CCCCCCCCNC(=O)ON=C(C1=CC(=O)C(C)(C2CCCCC2)O1)c1ccccc1 (stereo not given)	85 to 87
CN1C(=O)COc2cc3c(cc21)OCC31C(=O)Nc2ccccc21 (stereo not given)	> 250
C=CCOC(=O)COc1ccc(CO)cc1	33.5 to 34.5
N#CC(Cl)=C(Cl)SC(Cl)=C(Cl)C#N	87

SMILES	melting point [°C]
C[C@H](c1ccccc1)N1CCO[C@@H](c2ccc(C#N)cc2)C1	83.6
CCCN(CCC)C(=O)Cn1c(=O)n(C)c2cnc(-c3ccccc3)nc21	156 to 157
COc1cc2ncnc(N3CCN(C(=O)NCc4cnc(C)cn4)CC3)c2cc1OC	202 to 204
C[C@H]([C@](O)(Cn1cncn1)c1ccc(F)cc1F)S(N)(=O)=O	195 to 197
CC1(C)CON(Cc2ccc(Nc3cc4ccccc4c(=O)o3)cc2)C1=O	175 to 177
NC1=C(C(=O)c2ccc(Br)s2)C2=C(CCCC2)S1=O (stereo not given)	160 to 163
CN(CCNCc1c(O)c(Br)cc2c1CCC2(C)C)CCNC(=O)c1nc(Cl)c(N)nc1N	134 to 136
N#Cc1cn(-c2ccc(C(F)(F)F)cc2)c(=O)[nH]c1=O	230 to 232
COc1c2oc(C)cc2cc2c(C)cc(=O)oc12	154 to 155
Cc1cc(C)cc(NC(=O)Cc2ccc(OC3(C(=O)O)CCCC(C)C3)cc2)c1 (stereo not given)	175 to 177
C=C(C)CC(O)(C(Nc1ccc(F)c2nc(C)ncc12)c1ccc(Cl)cc1OC)C(F)(F)F (stereo not given)	110
CC(C)CC(CP(=O)(O)CNCCc1ccccc1)C(=O)N(c1ccc(-c2ccccc2)cc1)[C@@H](C)C(=O)O (stereo not given in full)	229 to 230
COCC(=O)C1CCC2C3CCC4CC(O)CCC4(C)C3C(=O)CC12C (stereo not given)	144 to 146
Cn1cnc2cc(C(=O)NC3CC3)c(NC(=O)c3cc(C(F)(F)F)nn3-c3ncccc3Cl)c(Cl)c21	148 to 151
CCc1ccc2c(c1)C=Cc1cc(C)ccc1C2c1cn(-c2ccnc(NCC(=O)Nc3nnn[nH]3)n2)c(=O)[nH]c1=O (stereo not given)	220 to 225
COC(=O)CCC(=O)c1cc(C(=O)N(C)C)cs1	98 to 100
COc1ccc2c(c1)C13CCN(CC4CC4)C(C2)C1(Cc1ccccc1)CCC1(C3)OCCO1 (stereo not given)	165 to 167
CC(C)(C)OC(=O)N[C@@H](Cc1ccccc1)[C@H](O)CNC1(c2cccc(C(F)(F)F)c2)CC1	124
COC(=O)COc1ccc(C(=O)CN)cc1	135 to 136
CCNCC1CN(c2c(F)cc3c(=O)c(C(=O)O)cn(C4CC4)c3c2F)CCO1 (stereo not given)	210 to 213
CCOC(=O)c1cn(C2CC2)c2nc(N3C[C@@H](CN)[C@@H](Cl)C3)c(F)cc2c1=O (relative stereo)	163 to 167
O=C(O)C=CC=CC=CC1=Cc2cc(-c3ccccc3)ccc2OC1	260
CCc1ccc(S(=O)(=O)Nc2cccnc2Nc2ccccc2)cc1	138 to 139
Cc1[nH]nc(C(=O)NC2CCCC2)c1NC(=O)c1cnccn1	170 to 171

SMILES	melting point [°C]
CCCCN(CCCC)c1nc(Nc2ccc3c(c2)C(=O)c2ccccc2C3=O)nc(N(CCCC)CCCC)n1	140 to 145
CCCCC(Cc1cc(C(C)(C)C)c(O)c(C(C)(C)C)c1)(C(=O)OC1CC(C)(C)N(OC)C(C)(C)C1)C(=O)OC1CC(C)(C)N(OC)C(C)(C)C1	111 to 113
O=C(Nc1ccc(OCc2ccncc2)c2ccccc12)c1cc(F)cc(N2CCOCC2)c1	157 to 159
O=C(OCCCI)C(=C1NCCCS1)[N+](=O)[O-]	58 to 60
OC(Cc1cnc(-c2c(F)cccc2F)nn1)c1ccc(Cl)cc1 (stereo not given)	98 to 102
CS(=O)(=O)c1ccc(-c2oc3ccccc3c(=O)c2-c2ccc(F)c(Cl)c2)cc1	196
O=C1OC(c2ccccc2)(c2ccccc2)C2CN(S(=O)(=O)/C=C/c3ccc(F)cc3)CCN12 (stereo not given)	248 to 249
O=C(NCc1ccc(Cl)cc1)c1cnc2c(I)cc(CC3CCOCC3)cc2c1O	257 to 259
O=C(Cc1ccc(O)cc1)OCc1ccccc1	70 to 72
NCc1ccc(CNC(=O)[C@@H](CCCNC(N)=N[N+](=O)[O-])NC(=O)C(c2ccccc2)c2ccccc2)cc1	198 to 199
CCOC(=O)c1cn(CC)c2cc3c(cc2c1=O)OCO3	177 to 178
O=c1[nH]c2cc3ccc(C(F)(F)F)cc3nc2[nH]1	> 250
COC(=O)c1cccc(NC(=O)NS(=O)(=O)c2ccc(C)cc2)c1	178 to 180
CC(C)(C)OC(=O)N[C@@H](CC1CCCCC1)[C@@H]1C[C@@H](C(C)(C)O)C(=O)O1	123 to 125
O=C(O)CCCN1C(=O)C(c2ccccc2)SC1=S (stereo not given)	138 to 139
CC(C)(C)OC(=O)N[C@H](Cc1ccc(CC(F)(F)C(F)(F)F)cc1)[C@@H](O)c1cccc(Cl)c1 (racemic)	156 to 157
CC(C)NCC(=O)Nc1cccc2c1C(=O)c1c(NC(=O)CNC(C)C)cccc1C2=O	196 to 197
CN(C)CCCOc1ccccc1C=C1CCc2ccccc2C1=O	67 to 69
Cc1ccc(S(=O)(=O)OCC2CN(c3cc(F)c(N4CCN(C(=O)OC(C)(C)C)CC4)c(F)c3)C(=O)O2)cc1 (stereo not given)	150 to 152
COc1ccc2c(O)c(C(=O)N(O)c3ccccc3)cnc2c1	260
COC(=O)C1CN2c3c(cc(F)c(OS(C)(=O)=O)c3CCN2C)C1=O (stereo not given)	247 to 250
CC1CCC(C)(C)C2=C1CC(O)C(C)(O)C2 (stereo not given)	121 to 123
CN=c1[nH]c(-c2cc(C)c(OCCCc3cc(C)no3)c(C)c2)no1	126 to 127
